According to patent US20060142247A1, “Tricyclic heterocycles” (priority 2004, published 2006):

Tested on: HCT 116 cells
Experiment: Viability assay HCT 116 cells (CellTiter-Glo)
Type: cell-based
Conditions: Homo sapiens, HCT-116, 120 h, HCT 116 human colon carcinoma cells, 5 days incubation, CellTiter-Glo luminescence
In short: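 Human colon carcinoma cells seeded at 1000/well in RPMI 1640 with GlutaMAX, FCS and Pen/Strep, incubated 24 h at 37 °C, then treated with 10 concentrations (30 μM to 0.0015 μM, 1:3). After 5 days, viability read by CellTiter-Glo ATP luminescence.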

Structure (SMILES) | IC50
CC1(C)C(=O)N(Cc2ccc(S(C)(=O)=O)cc2)c2cc3[nH]c(-c4n[nH]c5ccccc45)nc3cc21 [Example 27, 2-(1H-Indazol-3-yl)-5-(4-methanesulfonyl-benzyl)-7,7-dimethyl-5,7-dihydro-3H-imidazol[4,5-f]indol-6-one] | 100 to 1000 nM
CC1(C)C(=O)N(CCCN2CCOCC2)c2cc3[nH]c(-c4n[nH]c5ccccc45)nc3cc21 [Example 7, 2-(1H-indazol-3-yl)-7,7-dimethyl-5-(3-morpholin-4-yl-propyl)-5,7-dihydro-3H-imidazo[4,5-f]indol-6-one] | 280 nM
COCCOCCN1C(=O)C(C)(C)c2cc3nc(-c4n[nH]c5ccccc45)[nH]c3cc21 [Example 17, 2-(1H-Indazol-3-yl)-5-[2-(2-methoxy-ethoxy)-ethyl]-7,7-dimethyl-5,7-dihydro-3H-imidazo[4,5-f]indol-6-one] | 100 to 1000 nM
CCC1C(=O)Nc2cc3nc(-c4[nH]nc5ccccc45)[nH]c3cc21 (stereo not drawn) [Example 13, 7-Ethyl-2-(1H-indazol-3-yl)-5,7-dihydro-3H-imidazo[4,5-f]indol-6-one] | 100 to 1000 nM
CC1(C)C(=O)N(CCO[Si](C)(C)C(C)(C)C)c2cc3[nH]c(-c4n[nH]c5ccccc45)nc3cc21 [Example 28, 5-[2-(tert-Butyl-dimethyl-silanyloxy)-ethyl]-2-(1H-indazol-3-yl)-7,7-dimethyl-5,7-dihydro-3H-imidazo[4,5-f]indol-6-one] | 100 to 1000 nM
CC1(C)C(=O)N(CC(=O)Nc2ccccc2)c2cc3[nH]c(-c4n[nH]c5ccccc45)nc3cc21 [Example 43, 2-[2-(1H-Indazol-3-yl)-7,7-dimethyl-6-oxo-6,7-dihydro-3H-imidazo[4,5-f]indol-5-yl]-N-phenyl-acetamide] | 100 to 1000 nM
CC1(C)C(=O)N(Cc2ccccc2)c2cc3[nH]c(-c4n[nH]c5ccccc45)nc3cc21 [Example 26, 5-Benzyl-2-(1H-indazol-3-yl)-7,7-dimethyl-5,7-dihydro-3H-imidazo[4,5-f]indol-6-one] | 100 to 1000 nM
CC1(C)C(=O)N(CC(=O)NCc2ccccc2)c2cc3[nH]c(-c4n[nH]c5ccccc45)nc3cc21 [Example 39, N-Benzyl-2-[2-(1H-indazol-3-yl)-7,7-dimethyl-6-oxo-6,7-dihydro-3H-imidazo[4,5-f]indol-5-yl]-acetamide] | 100 to 1000 nM
CC1(C)C(=O)N(CC(=O)N2CCOCC2)c2cc3[nH]c(-c4n[nH]c5ccccc45)nc3cc21 [Example 40, 2-(1H-Indazol-3-yl)-7,7-dimethyl-5-(2-morpholin-4-yl-2-oxo-ethyl)-5,7-dihydro-3H-imidazo[4,5-f]indol-6-one] | 100 to 1000 nM
CC1(C)C(=O)N(CC(=O)NO)c2cc3[nH]c(-c4n[nH]c5ccccc45)nc3cc21 [Example 49, N-Hydroxy-2-[2-(1H-indazol-3-yl)-7,7-dimethyl-6-oxo-6,7-dihydro-3H-imidazo[4,5-f]indol-5-yl]-acetamide] | 1000 to 10000 nM
CC1(C)C(=O)N(CC(O)CO)c2cc3[nH]c(-c4n[nH]c5ccccc45)nc3cc21 (stereo not drawn) [Example 35, 5-(2,3-Dihydroxy-propyl)-2-(1H-indazol-3-yl)-7,7-dimethyl-5,7-dihydro-3H-imidazo [4,5-f]indol-6-one] | 100 to 1000 nM
CN(C)CCCN1C(=O)C(C)(C)c2cc3nc(-c4n[nH]c5ccccc45)[nH]c3cc21 [Example 21, 5-(3-Dimethylamino-propyl)-2-(1H-indazol-3-yl)-7,7-dimethyl-5,7-dihydro-3H-imidazo[4,5-f]indol-6-one] | 100 to 1000 nM
CCOC(=O)CN1C(=O)C(C)(C)c2cc3nc(-c4n[nH]c5ccccc45)[nH]c3cc21 [Example 23, [2-(1H-Indazol-3-yl)-7,7-dimethyl-6-oxo-6,7-dihydro-3H-imidazo[4,5-f]indol-5-yl]-acetic acid ethyl ester] | 100 to 1000 nM

The remaining lines, values ahead:

IC50 | Structure (SMILES)
100 to 1000 nM | O=C1Nc2cc3nc(-c4n[nH]c5ccccc45)[nH]c3cc2C12CCCC2 [Example 9, 2-(1H-indazol-3-yl)-spiro[7,7-cyclopentan-5,7-dihydro-3H-imidazo[4,5-f]indol]-6-one]
100 to 1000 nM | CC1(C)C(=O)Nc2cc3[nH]c(-c4n[nH]c5ccccc45)nc3cc21 [Example 8, 2-(1H-indazol-3-yl)-7,7-dimethyl-5,7-dihydro-3H-imidazo[4,5-f]indol-6-one]
180 nM | C=CCN1C(=O)C(C)(C)c2cc3nc(-c4n[nH]c5ccccc45)[nH]c3cc21 [Example 2, 5-Allyl-2-(1H-indazol-3-yl)-7,7-dimethyl-5,7-dihydro-3H-imidazo[4,5-f]indol-6-one]
100 to 1000 nM | CC1(C)C(=O)N(CCN)c2cc3[nH]c(-c4n[nH]c5ccccc45)nc3cc21 [Example 52, 5-(2-Amino-ethyl)-2-(1H-indazol-3-yl)-7,7-dimethyl-5,7-dihydro-3H-imidazo[4,5-f]indol-6-one]
100 to 1000 nM | CC1(C)C(=O)N(CC#N)c2cc3[nH]c(-c4n[nH]c5ccccc45)nc3cc21 [Example 24, [2-(1H-Indazol-3-yl)-7,7-dimethyl-6-oxo-6,7-dihydro-3H-imidazo[4,5-f]indol-5-yl]-acetonitrile]
100 to 1000 nM | CC1(C)C(=O)N(CC(N)=O)c2cc3[nH]c(-c4n[nH]c5ccccc45)nc3cc21 [Example 37, 2-[2-(1H-Indazol-3-yl)-7,7-dimethyl-6-oxo-6,7-dihydro-3H-imidazo[4,5-f]indol-5-yl]-acetamide]
100 to 1000 nM | CC1(C)C(=O)N(CCCN2CCCCC2)c2cc3[nH]c(-c4n[nH]c5ccccc45)nc3cc21 [Example 19, 2-(1H-Indazol-3-yl)-7,7-dimethyl-5-(3-piperidin-1-yl-propyl)-5,7-dihydro-3H-imidazo[4,5-f]indol-6-one]
100 to 1000 nM | CC1(C)C(=O)N(CCO)c2cc3[nH]c(-c4n[nH]c5ccccc45)nc3cc21 [Example 34, 5-(2-Hydroxy-ethyl)-2-(1H-indazol-3-yl)-7,7-dimethyl-5,7-dihydro-3H-imidazo[4,5-f]indol-6-one]
1000 to 10000 nM | CC1(C)C(=O)N(CC(=O)O)c2cc3[nH]c(-c4n[nH]c5ccccc45)nc3cc21 [Example 36, [2-(1H-Indazol-3-yl)-7,7-dimethyl-6-oxo-6,7-dihydro-3H-imidazo[4,5-f]indol-5-yl]-acetic acid]
100 to 1000 nM | CCCN1C(=O)C(C)(C)c2cc3nc(-c4n[nH]c5ccccc45)[nH]c3cc21 [Example 5, 2-(1H-indazol-3-yl)-7,7-dimethyl-5-propyl-5,7-dihydro-3H-imidazo[4,5-f]indol-6-one]
100 to 1000 nM | CC1C(=O)Nc2cc3[nH]c(-c4n[nH]c5ccccc45)nc3cc21 (stereo not drawn) [Example 11, 2-(1H-Indazol-3-yl)-7-methyl-5,7-dihydro-3H-imidazo[4,5-f]indol-6-one]
100 to 1000 nM | CC(C)N1C(=O)C(C)(C)c2cc3nc(-c4n[nH]c5ccccc45)[nH]c3cc21 [Example 6, 2-(1H-indazol-3-yl)-5-isopropyl-7,7-dimethyl-5,7-dihydro-3H-imidazo[4,5-f]indol-6-one]
100 to 1000 nM | CCN1C(=O)C(C)(C)c2cc3nc(-c4n[nH]c5ccccc45)[nH]c3cc21 [Example 3, 5-Ethyl-2-(1H-indazol-3-yl)-7,7-dimethyl-5,7-dihydro-3H-imidazo[4,5-f]indol-6-one]
100 to 1000 nM | C=CCCN1C(=O)C(C)(C)c2cc3nc(-c4n[nH]c5ccccc45)[nH]c3cc21 [Example 15, 5-But-3-enyl-2-(1H-indazol-3-yl)-7,7-dimethyl-5,7-dihydro-3H-imidazo[4,5-f]indol-6-one]
